SMILES strings stand for the structures. ≈ marks a conversion by molar mass, not a printed value.

For the data set the following is noted: buffer; pH 7.4; 200.0 µM.
As usually defined, the kinetic solubility is solubility judged after dilution from a stock solution rather than from solid. `O=C(NCc1ccccc1Cl)c1ccc2ccccc2n1` registered a solubility (kinetic) of 6.2 µg/mL (≈ 20.9 µM).

As for `Cc1cc(NC(=O)c2cc3cccc([N+](=O)[O-])c3[nH]2)ccc1F`, the solubility (kinetic) worked out at 0.7 µg/mL (≈ 2.23 µM).

For the molecule `CC(C)C12CN3CC(C(C)C)(CN(C1)C3(C)C)C2=O`, the solubility (kinetic) worked out at 32 µg/mL (≈ 121 µM).

Consider `O=C1CCCC(=O)N1c1ccc(F)cc1`, for which the solubility (kinetic) was more than 31.1 µg/mL.

The molecule `O=C1C(Cl)=C(NCc2cccnc2)C(=O)c2ccccc21` returned a solubility (kinetic) of 6.9 µg/mL (≈ 23.1 µM).

`O=C(Nc1ccc(O)cc1)c1ccc(NC(=O)c2ccco2)cc1` came in with a kinetic solubility of 1.8 µg/mL (≈ 5.58 µM).

Turning to `Cc1ccc(CCN2CC(C(=O)NCCC(C)C)CC2=O)cc1` (centres undefined), the kinetic solubility was found to be 45.7 µg/mL (≈ 144 µM).

`CC(=O)Nc1ccc(NC(=S)NC(=O)/C=C/c2ccco2)cc1` displayed a solubility (kinetic) of 32.3 µg/mL (≈ 98.1 µM).

Regarding `O=C(/C=C/C(=O)NCc1cccs1)NCc1cccs1`, the kinetic solubility is 0.6 µg/mL (≈ 1.96 µM).

As for `CN1c2ccccc2C(=O)/C(=C\Nc2ccc(F)cc2)S1(=O)=O`, the solubility (kinetic) was less than 0.4 µg/mL.

`O=C(O)CNc1ccccc1C(=O)O`: the solubility (kinetic) was more than 29.3 µg/mL.

In turn, `COC(=O)c1cc(OC(=O)c2ccc(=O)[nH]c2)cc(C(=O)OC)c1` registered a solubility (kinetic) of 12.6 µg/mL (≈ 38 µM).

`Cc1cc(C)n(-c2c(C)[nH]c3ccccc23)n1` returned a solubility (kinetic) of more than 33.8 µg/mL.

Turning to `O=[N+]([O-])c1cc(C(F)(F)F)ccc1NC1CCN(Cc2ccccc2)C1` (centres undefined), the solubility (kinetic) came out at 1.7 µg/mL (≈ 4.65 µM).

Molecule `CCCCn1c(N)c(N(C)C(=O)C2CCCC2)c(=O)[nH]c1=O` came in with a solubility (kinetic) of more than 46.3 µg/mL.

The molecule `COc1ccccc1N1CCN(C(=O)c2cc3cc(C)ccc3[nH]2)CC1` yielded a solubility (kinetic) of less than 0.2 µg/mL.

The molecule `CCOC(=O)CSc1nc(C)cc2c1C(=O)OC2` displayed a solubility (kinetic) of 37.5 µg/mL (≈ 140 µM).

Molecule `COc1ccc(Nc2nc(C)cc(C)c2C#N)c(OC)c1` came in with a solubility (kinetic) of less than 0.2 µg/mL.

Regarding `COC(=O)c1sc(SC)nc1N`, the solubility (kinetic) is 30.4 µg/mL (≈ 149 µM).

`O=C(COC(=O)CNC(=O)c1cccc(OC(F)F)c1)NCc1ccc2c(c1)OCO2`: the solubility (kinetic) was found to be 22 µg/mL (≈ 50.4 µM).

Turning to `Cn1ccnc1SCC(=O)Nc1ccc(SC(F)F)cc1`, the solubility (kinetic) was more than 49.4 µg/mL.

In the case of `CC(C)N1CC(COc2ccccc2Cl)OC1=O` (centres undefined), the solubility (kinetic) is more than 40.5 µg/mL.

As for `CCn1c(SCC(=O)O)nc2ccccc21`, the solubility (kinetic) was more than 35.4 µg/mL.

Turning to `Cc1cc([N+](=O)[O-])nn1CC(=O)N(C)C1CCCCC1`, the solubility (kinetic) is more than 42 µg/mL.

`O=C(COc1ccc(F)cc1F)N1CCCCCCC1` returned a solubility (kinetic) of more than 42.5 µg/mL.

Regarding `CCN(c1ccccc1)S(=O)(=O)c1ccc(N2CCN(c3ccc(O)cc3)CC2)nc1`, the kinetic solubility amounted to 2.7 µg/mL (≈ 6.16 µM).

In turn, `Clc1ccc(Nc2ccc3ccccc3n2)cc1` returned a kinetic solubility of less than 0.3 µg/mL.

For `COc1ccc(C(=O)Nc2ccc(CN3CCS(=O)(=O)CC3)cc2)cc1`, the solubility (kinetic) is 1.3 µg/mL (≈ 3.47 µM).

`O=C(Nc1ccc(CN2CCCCC2)cc1)c1cccc(F)c1` displayed a kinetic solubility of 44.7 µg/mL (≈ 143 µM).

Take `CC(C)(C)c1ccc(/C=C(\C#N)C(=O)Nc2ccccn2)cc1`: the solubility (kinetic) stood at 0.6 µg/mL (≈ 1.96 µM).

For `O=C(NNC1CC(=O)N(c2ccc(Cl)cc2)C1=O)c1ccco1` (centres undefined), the solubility (kinetic) was more than 50.1 µg/mL.

For the molecule `CCC(=O)NC(=S)Nc1cccc(Cl)c1N1CCCC1`, the solubility (kinetic) amounted to 0.3 µg/mL (≈ 0.962 µM).

Consider `O=C(COC(=O)c1ccccc1Br)Nc1cccnc1Cl`, for which the kinetic solubility amounted to 18.2 µg/mL (≈ 49.2 µM).

The molecule `CC1CC(NC(=O)CC#N)CC(C)(C)C1` (centres undefined) showed a solubility (kinetic) of more than 31.2 µg/mL.

Consider `CCN1C(=O)Cc2cc(S(=O)(=O)NCCc3ccccc3)ccc21`, for which the solubility (kinetic) came out at 32.9 µg/mL (≈ 95.5 µM).

`Cc1ccc(C(=O)Nc2cc3[nH]c(=O)oc3cc2C)cc1` returned a solubility (kinetic) of 4.8 µg/mL (≈ 17 µM).

For `O=C(CSC1=NCCN1)Nc1ccccc1[N+](=O)[O-]`, the kinetic solubility is more than 42 µg/mL.

The molecule `Cc1ccccc1N1CCN(Cc2ccc([N+](=O)[O-])o2)CC1` yielded a solubility (kinetic) of 34.3 µg/mL (≈ 114 µM).

Turning to `O=C(NN1CCOCC1)c1ccc(F)cc1`, the solubility (kinetic) is more than 33.6 µg/mL.

The molecule `O=C(Nc1ccc(NC(=O)C2CCCCC2)nc1)c1cccc(F)c1` had a solubility (kinetic) of 1.2 µg/mL (≈ 3.52 µM).

Take `CCN(CC)c1nc(C)nc2c1sc(=S)n2C`: the kinetic solubility is 0.6 µg/mL (≈ 2.24 µM).

In turn, `c1cnc2ccc(-c3ccc4ncccc4c3)cc2c1` returned a kinetic solubility of 7.7 µg/mL (≈ 30 µM).

On to `CCN(CC)Cc1c(O)ccc2c(=O)c(-c3ccccc3Cl)coc12`, for which the kinetic solubility is more than 53.7 µg/mL.

As to `Cc1ccccc1C(=O)NCC(=O)N1CCN(c2ccccn2)CC1`, the solubility (kinetic) is more than 50.8 µg/mL.

Molecule `CC(C)Nc1nc(Cl)nc(Nc2ccccc2)n1` gave a solubility (kinetic) of 27.3 µg/mL (≈ 104 µM).

On to `OC(c1ccc(F)cc1)C(CN1CCOCC1)c1ccccc1` (centres undefined), for which the kinetic solubility was more than 47.3 µg/mL.

Regarding `Cc1ccc2c(c1)N(C(C)C(=O)NCc1ccccn1)C(=O)CO2` (centres undefined), the kinetic solubility is more than 48.8 µg/mL.

The molecule `CC(C)C(=O)N1CCN(c2ccccc2NC(=O)c2ccc(Br)o2)CC1` had a solubility (kinetic) of 52.2 µg/mL (≈ 124 µM).

The molecule `Cc1cccc2[nH]c3c(N4CC=C(c5ccc(F)cc5)CC4)ncnc3c12` displayed a solubility (kinetic) of 1 µg/mL (≈ 2.79 µM).

`CSc1cccc(N2C(=O)C3CCCN3C2=S)c1` (centres undefined) registered a kinetic solubility of 36.2 µg/mL (≈ 130 µM).

`CC(=O)Nc1nc(C)c(Oc2cccc(C(F)(F)F)c2)c(=O)[nH]1`: the kinetic solubility was determined as 45.1 µg/mL (≈ 138 µM).

As for `Fc1cnc(Cl)nc1N1CCN(c2ccccc2)CC1`, the solubility (kinetic) is 17.4 µg/mL (≈ 59.4 µM).

On to `CN(C(=O)CSc1nncn1-c1ccccc1)c1ccccc1`, for which the kinetic solubility was more than 48.7 µg/mL.

The molecule `COc1cc([N+](=O)[O-])ccc1NC(=O)NCc1cccnc1` came in with a solubility (kinetic) of 17 µg/mL (≈ 56.2 µM).

On to `O=C1NC2=C(C(=O)CCC2)C(c2cccc([N+](=O)[O-])c2)N1` (centres undefined), for which the solubility (kinetic) is more than 43.1 µg/mL.

For `CC(C)CCN1CCN(Cc2ccc(C(F)(F)F)cc2)CC1CCO` (centres undefined), the solubility (kinetic) is more than 53.8 µg/mL.

Turning to `COc1ccc(-c2cn(-c3ccc(C)c(Cl)c3)c(=S)[nH]2)cc1OC`, the kinetic solubility stood at 11.9 µg/mL (≈ 33 µM).

Consider `O=C(CNC(=O)c1ccco1)Nc1ccc(Br)cc1`, for which the solubility (kinetic) is 14.1 µg/mL (≈ 43.6 µM).

Molecule `CCN(C(=O)COC(=O)c1cccnc1SC)C1CCCCC1` showed a kinetic solubility of more than 50.5 µg/mL.

The molecule `CN1C(=O)/C(=C\c2ccc(N(C)C)cc2)OC1=S` showed a kinetic solubility of less than 0.3 µg/mL.

`CCC(=O)Nc1cccc(C(=O)N(Cc2ccccc2)Cc2ccccc2)c1` showed a kinetic solubility of 22.2 µg/mL (≈ 59.6 µM).

The molecule `CC(CCc1ccccc1)NC(=O)CN1CCc2ccccc2C1` (centres undefined) showed a kinetic solubility of 47.3 µg/mL (≈ 147 µM).

Molecule `Cc1cccc(C(=O)NCCC(=O)Nc2ccc(C#N)cc2)c1` yielded a solubility (kinetic) of 1.3 µg/mL (≈ 4.23 µM).

For the molecule `O=C(Cc1ccc(F)cc1)NCC1CCCO1` (centres undefined), the kinetic solubility is more than 35.6 µg/mL.

The molecule `CC(=O)NCCC(=O)Nc1nc(-c2ccc3c(c2)OCCO3)cs1` yielded a kinetic solubility of 13.6 µg/mL (≈ 39.1 µM).

Take `Cc1ccc(C(=O)OCC(=O)N2c3ccccc3NC(=O)C2(C)C)cc1S(=O)(=O)N1CCCCC1`: the kinetic solubility is 3.6 µg/mL (≈ 7.21 µM).

Regarding `CCCN(CC(=O)Nc1ccc(Cl)cc1Cl)C(=O)c1ccc(=O)[nH]c1`, the solubility (kinetic) is more than 57.3 µg/mL.

Regarding `CC(C)c1ccccc1NC(=O)c1ccc2ncsc2c1`, the solubility (kinetic) was 21 µg/mL (≈ 70.9 µM).

`CC12CCC(=O)N1C(C(=O)Nc1ccccc1F)CS2` (centres undefined) came in with a kinetic solubility of more than 44.2 µg/mL.

Take `Cc1ccc(-c2csc(N=C(N)N)n2)cc1`: the kinetic solubility was 15.7 µg/mL (≈ 67.6 µM).

In turn, `O=C(Nc1cc(Cl)cc(Cl)c1)c1cccnc1` registered a solubility (kinetic) of 17.6 µg/mL (≈ 65.9 µM).

The molecule `CC1=C(C(=O)OC2CCCCC2)C(c2ccccc2F)NC(=O)N1` (centres undefined) yielded a kinetic solubility of 0.5 µg/mL (≈ 1.5 µM).

On to `Cc1ccc(OCc2nc(C#N)c(N3CCCCC3)o2)cc1`, for which the solubility (kinetic) was found to be 4.9 µg/mL (≈ 16.5 µM).

In turn, `Cc1ccc(N2C(=O)CS/C2=N\C(=S)Nc2ccccc2)cc1` showed a solubility (kinetic) of 1 µg/mL (≈ 2.93 µM).

The values are drawn from PubChem BioAssay AID1996.
